Data published in the supplement of paper PMC12463676, “Small-molecule dissolution of stress granules by redox modulation benefits ALS models” (Nature Chemical Biology, 2025).

Experiments:
[1] = compound: NC(=O)CCCCC1CCSS1 [lipoamide]; test: thermal stability z-score vs DMSO; higher = more thermally stabilized by treatment; settings: HeLa, lipoamide concentration 100 µM
Description: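 Cellular thermal proteome profiling in HeLa cells. Cells were treated with 100 µM lipoamide for 1 h, with or without 1 mM arsenate for a further 1 h, then heated to ten temperatures (37-66.3 °C), and soluble protein was quantified by TMT mass spectrometry relative to 0.1% DMSO controls. The thermal stability score (sum of log2 fold changes minus the abundance score) was transformed to a z-score; mean of n = 3 experiments.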

[2] = compound: O=[As]([O-])(O)O.[K+] [potassium arsenate]; test: as above; settings: HeLa; arsenate concentration 1 mM
Description: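 Cellular thermal proteome profiling in HeLa cells treated with 1 mM arsenate for 1 h (DMSO pretreatment), heated to ten temperatures (37-66.3 °C). Soluble protein was quantified by TMT mass spectrometry relative to DMSO controls; the thermal stability score was transformed to a z-score; mean of n = 3 experiments.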

[3] = arsenate co-treatment: 1 mM arsenate 1 h
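Note: each temperature applied for 3 min, abundance score taken as mean log2 fold change at the two lowest temperatures, z-score obtained by mean subtraction and division by SD.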

Chain of UniProt Q6P4I2 (Q6P4I2 whole entry): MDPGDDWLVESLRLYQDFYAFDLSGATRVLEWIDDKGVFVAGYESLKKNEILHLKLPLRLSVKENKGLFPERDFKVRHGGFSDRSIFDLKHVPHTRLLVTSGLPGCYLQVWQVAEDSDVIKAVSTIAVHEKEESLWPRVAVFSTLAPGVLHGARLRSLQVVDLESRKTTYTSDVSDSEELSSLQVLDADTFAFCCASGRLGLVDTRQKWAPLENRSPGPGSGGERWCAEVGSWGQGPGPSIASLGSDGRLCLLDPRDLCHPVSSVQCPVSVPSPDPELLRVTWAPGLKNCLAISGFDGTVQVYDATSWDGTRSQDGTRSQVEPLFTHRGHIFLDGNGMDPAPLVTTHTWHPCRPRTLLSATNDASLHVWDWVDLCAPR
Chain of UniProt O94967 (O94967 whole entry): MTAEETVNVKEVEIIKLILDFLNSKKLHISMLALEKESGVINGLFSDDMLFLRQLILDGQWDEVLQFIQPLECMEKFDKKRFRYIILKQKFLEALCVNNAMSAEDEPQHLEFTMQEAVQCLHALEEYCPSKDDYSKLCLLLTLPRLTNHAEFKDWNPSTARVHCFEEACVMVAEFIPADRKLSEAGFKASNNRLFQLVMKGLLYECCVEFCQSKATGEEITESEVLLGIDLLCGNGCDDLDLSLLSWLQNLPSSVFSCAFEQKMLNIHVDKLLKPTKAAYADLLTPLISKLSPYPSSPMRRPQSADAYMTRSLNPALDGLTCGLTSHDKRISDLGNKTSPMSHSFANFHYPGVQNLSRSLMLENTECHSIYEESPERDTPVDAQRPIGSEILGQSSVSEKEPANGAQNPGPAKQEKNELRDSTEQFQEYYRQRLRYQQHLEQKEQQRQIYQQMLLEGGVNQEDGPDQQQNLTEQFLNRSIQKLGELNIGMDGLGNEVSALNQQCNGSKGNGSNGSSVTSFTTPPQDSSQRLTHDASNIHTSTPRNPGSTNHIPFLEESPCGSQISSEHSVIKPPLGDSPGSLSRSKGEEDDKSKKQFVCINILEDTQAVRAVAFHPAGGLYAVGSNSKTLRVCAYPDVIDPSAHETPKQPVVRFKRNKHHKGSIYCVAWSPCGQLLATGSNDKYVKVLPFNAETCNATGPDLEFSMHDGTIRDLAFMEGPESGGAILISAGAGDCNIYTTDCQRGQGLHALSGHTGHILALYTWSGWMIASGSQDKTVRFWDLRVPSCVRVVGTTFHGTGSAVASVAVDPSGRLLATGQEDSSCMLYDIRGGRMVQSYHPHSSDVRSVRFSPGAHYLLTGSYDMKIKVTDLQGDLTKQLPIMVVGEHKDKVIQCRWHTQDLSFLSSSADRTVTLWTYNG
Chain of UniProt Q96FK6 (Q96FK6 whole entry): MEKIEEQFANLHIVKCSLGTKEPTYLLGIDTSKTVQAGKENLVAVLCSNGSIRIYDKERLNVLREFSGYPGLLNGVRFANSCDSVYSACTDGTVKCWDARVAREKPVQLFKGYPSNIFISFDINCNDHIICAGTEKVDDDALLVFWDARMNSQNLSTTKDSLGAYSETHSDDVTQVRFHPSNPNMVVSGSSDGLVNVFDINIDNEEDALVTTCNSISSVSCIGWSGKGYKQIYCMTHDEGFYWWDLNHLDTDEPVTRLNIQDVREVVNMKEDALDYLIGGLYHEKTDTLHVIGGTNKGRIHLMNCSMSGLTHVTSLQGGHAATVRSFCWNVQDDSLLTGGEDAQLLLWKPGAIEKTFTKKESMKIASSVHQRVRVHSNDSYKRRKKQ
Chain of UniProt O76024 (O76024 whole entry): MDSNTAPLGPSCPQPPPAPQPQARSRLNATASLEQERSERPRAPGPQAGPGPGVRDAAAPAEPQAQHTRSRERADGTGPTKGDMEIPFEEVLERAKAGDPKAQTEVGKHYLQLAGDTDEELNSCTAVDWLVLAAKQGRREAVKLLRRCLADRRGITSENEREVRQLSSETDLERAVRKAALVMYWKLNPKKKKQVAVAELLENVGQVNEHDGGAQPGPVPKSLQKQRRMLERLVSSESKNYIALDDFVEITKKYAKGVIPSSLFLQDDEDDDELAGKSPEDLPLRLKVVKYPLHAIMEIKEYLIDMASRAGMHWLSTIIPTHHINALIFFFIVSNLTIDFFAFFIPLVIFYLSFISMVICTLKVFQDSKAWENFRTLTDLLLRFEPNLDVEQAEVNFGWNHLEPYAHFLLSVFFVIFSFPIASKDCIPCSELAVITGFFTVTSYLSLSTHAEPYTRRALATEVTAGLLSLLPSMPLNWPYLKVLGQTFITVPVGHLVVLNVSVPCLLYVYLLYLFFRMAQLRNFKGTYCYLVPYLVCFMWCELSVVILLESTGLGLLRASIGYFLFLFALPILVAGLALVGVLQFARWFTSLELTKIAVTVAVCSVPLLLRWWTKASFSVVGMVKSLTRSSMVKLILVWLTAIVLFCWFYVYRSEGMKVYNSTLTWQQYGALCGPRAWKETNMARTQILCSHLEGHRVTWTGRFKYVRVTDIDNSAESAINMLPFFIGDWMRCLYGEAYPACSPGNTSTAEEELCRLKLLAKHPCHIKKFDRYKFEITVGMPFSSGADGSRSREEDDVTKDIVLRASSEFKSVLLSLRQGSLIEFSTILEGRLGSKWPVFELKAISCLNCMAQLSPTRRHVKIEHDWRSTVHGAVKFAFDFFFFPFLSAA
Chain of UniProt O43379 (O43379 whole entry): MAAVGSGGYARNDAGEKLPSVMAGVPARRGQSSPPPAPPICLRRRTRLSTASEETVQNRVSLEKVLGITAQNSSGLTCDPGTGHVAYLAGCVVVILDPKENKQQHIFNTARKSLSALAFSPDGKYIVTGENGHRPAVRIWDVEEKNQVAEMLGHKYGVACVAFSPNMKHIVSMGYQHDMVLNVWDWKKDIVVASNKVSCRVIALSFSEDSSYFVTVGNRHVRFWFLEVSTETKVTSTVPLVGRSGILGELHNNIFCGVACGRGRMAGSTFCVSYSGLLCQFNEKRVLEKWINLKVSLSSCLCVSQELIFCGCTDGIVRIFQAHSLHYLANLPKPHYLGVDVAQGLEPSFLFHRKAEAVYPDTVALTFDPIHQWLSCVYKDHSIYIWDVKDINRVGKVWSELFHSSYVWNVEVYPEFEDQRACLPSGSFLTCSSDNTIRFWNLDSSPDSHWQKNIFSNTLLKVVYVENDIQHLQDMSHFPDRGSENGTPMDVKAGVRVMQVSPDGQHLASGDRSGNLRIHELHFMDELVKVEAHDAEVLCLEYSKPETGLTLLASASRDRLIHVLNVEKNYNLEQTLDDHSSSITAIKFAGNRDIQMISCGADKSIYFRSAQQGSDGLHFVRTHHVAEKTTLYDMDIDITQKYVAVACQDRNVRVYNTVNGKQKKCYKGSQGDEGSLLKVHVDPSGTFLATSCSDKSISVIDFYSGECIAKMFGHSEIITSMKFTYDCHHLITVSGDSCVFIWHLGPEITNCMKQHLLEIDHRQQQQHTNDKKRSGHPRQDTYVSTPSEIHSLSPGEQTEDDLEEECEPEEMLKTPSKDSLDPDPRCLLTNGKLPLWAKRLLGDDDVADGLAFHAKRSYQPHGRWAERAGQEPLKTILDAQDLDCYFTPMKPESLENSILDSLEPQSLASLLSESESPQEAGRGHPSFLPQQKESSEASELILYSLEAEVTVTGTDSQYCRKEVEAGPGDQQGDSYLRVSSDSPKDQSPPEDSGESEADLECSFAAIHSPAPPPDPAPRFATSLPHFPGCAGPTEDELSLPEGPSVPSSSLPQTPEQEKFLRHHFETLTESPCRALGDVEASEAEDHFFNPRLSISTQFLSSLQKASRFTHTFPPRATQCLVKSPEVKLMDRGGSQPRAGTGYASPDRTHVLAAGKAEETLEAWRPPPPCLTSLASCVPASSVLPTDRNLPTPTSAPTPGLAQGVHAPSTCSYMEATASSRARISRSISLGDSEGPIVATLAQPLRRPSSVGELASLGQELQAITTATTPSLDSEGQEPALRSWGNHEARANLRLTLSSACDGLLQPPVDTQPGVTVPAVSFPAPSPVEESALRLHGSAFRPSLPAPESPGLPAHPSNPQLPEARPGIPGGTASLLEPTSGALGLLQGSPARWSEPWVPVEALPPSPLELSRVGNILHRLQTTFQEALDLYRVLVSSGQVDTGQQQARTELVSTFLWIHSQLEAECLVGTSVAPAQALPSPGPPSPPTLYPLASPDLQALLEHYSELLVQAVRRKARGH
Chain of UniProt Q5T9L3 (Q5T9L3 whole entry): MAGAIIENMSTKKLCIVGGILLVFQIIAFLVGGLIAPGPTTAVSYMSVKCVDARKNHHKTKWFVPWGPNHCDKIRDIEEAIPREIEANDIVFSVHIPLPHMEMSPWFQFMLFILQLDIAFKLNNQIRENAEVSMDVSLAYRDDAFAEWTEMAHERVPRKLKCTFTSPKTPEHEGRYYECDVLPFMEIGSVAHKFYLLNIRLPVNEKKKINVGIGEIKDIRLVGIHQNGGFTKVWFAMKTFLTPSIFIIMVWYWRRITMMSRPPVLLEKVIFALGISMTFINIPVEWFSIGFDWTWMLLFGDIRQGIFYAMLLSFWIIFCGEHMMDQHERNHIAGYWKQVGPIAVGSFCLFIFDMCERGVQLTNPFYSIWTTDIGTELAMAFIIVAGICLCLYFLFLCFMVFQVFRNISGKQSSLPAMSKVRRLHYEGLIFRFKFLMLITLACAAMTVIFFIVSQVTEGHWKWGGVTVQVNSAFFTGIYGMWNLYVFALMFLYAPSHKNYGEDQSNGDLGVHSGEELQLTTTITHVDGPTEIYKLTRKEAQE
Chain of UniProt P41221 (P41221 whole entry): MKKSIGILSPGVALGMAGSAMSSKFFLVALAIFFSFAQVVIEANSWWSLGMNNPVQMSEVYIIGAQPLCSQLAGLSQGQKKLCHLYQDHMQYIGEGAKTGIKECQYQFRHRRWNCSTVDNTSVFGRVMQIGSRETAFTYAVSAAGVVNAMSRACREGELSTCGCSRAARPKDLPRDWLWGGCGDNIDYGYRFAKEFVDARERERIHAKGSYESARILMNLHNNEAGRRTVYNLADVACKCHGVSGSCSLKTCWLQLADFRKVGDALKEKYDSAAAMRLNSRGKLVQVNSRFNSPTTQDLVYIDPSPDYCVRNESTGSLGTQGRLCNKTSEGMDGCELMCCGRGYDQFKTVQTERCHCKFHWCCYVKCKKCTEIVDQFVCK

Row | Target | thermal stability z-score [1, 3] | thermal stability z-score ([1]; arsenate co-treatment: none) | thermal stability z-score [2]
1 | WDR47 (UniProt O94967) | 0.51 | 0.317 | -0.0616
2 | WDR48 (UniProt Q8TAF3) | 0.197 | 0.3 | 1.13
3 | WDR53 (UniProt Q7Z5U6) | 0.164 | 0.989 | 1.07
4 | WDR55 (UniProt Q9H6Y2) | 0.00122 | -0.679 | -1.7
5 | WDR61 (UniProt Q9GZS3) | 0.936 | 0.285 | -0.236
6 | WDR62 (UniProt O43379) | -0.259 | -0.153 | -0.0901
7 | WDR70 (UniProt Q9NW82) | 0.397 | 0.0128 | -0.891
8 | WDR73 (UniProt Q6P4I2) | 0.0525 | -0.0893 | -0.351
9 | WDR74 (UniProt Q6RFH5) | -1.21 | -0.713 | -0.205
10 | WDR75 (UniProt Q8IWA0) | 0.0395 | 0.0658 | 0.152
11 | WDR77 (UniProt Q9BQA1) | -0.484 | 0.78 | -0.717
12 | WDR81 (UniProt Q562E7) | -0.0547 | -0.0815 | 0.105
13 | WDR82 (UniProt Q6UXN9) | 0.88 | -0.211 | -0.75
14 | WDR89 (UniProt Q96FK6) | 2.45 | 1.2 | -12.3
15 | WDR92 (UniProt Q96MX6) | -0.0904 | -0.202 | 0.368
16 | WDSUB1 (UniProt Q8N9V3) | 0.698 | 0.878 | 0.867
17 | WDYHV1 (UniProt Q96HA8) | 0.206 | 0.157 | -0.625
18 | WEE1 (UniProt P30291) | -0.142 | 0.206 | 0.00265
19 | WFS1 (UniProt O76024) | -0.47 | -0.487 | -0.022
20 | WIPF2 (UniProt Q8TF74) | 0.726 | 0.703 | 0.0475
21 | WIPI1 (UniProt Q5MNZ9) | -0.175 | -0.814 | 0.18
22 | WIPI2 (UniProt Q9Y4P8) | 0.0343 | 0.463 | -0.0998
23 | WLS (UniProt Q5T9L3) | -2.04 | -1.12 | 0.0899
24 | WNK1 (UniProt Q9H4A3) | 0.149 | -0.0327 | 0.386
25 | WNT5A (UniProt P41221) | -0.888 | -0.379 | 0.214
26 | WRAP53 (UniProt Q9BUR4) | -0.113 | -0.15 | -0.337
27 | WRB (UniProt O00258) | -0.618 | 0.0706 | -0.55
28 | WRNIP1 (UniProt Q96S55) | -0.272 | -0.113 | 0.0587
